In PMC11277932, “Australian Marine and Terrestrial Streptomyces-Derived Surugamides, and Synthetic Analogs, and Their Ability to Inhibit Dirofilaria immitis (Heartworm) Motility” (Marine Drugs, 2024):
Converted amounts (≈) assume the structure as drawn. Square brackets hold non-standard residues; d marks the D form. Peptide text beside a SMILES is read from it. * marks the point of attachment. d(aIle) = CC[C@H](C)[C@@H](N)C(=O)O; hArg = N=C(N)NCCCC[C@H](N)C(=O)O; Lys(Me) = CNCCCC[C@H](N)C(=O)O; Lauroyl = CCCCCCCCCCCC(=O)*; Pyruvoyl = CC(=O)C(=O)*; Pentanoyl = CCCCC(=O)*; Propionyl = CCC(=O)*; Bz = O=C(c1ccccc1)*; For = O=C*

Assays:
[1] = test system: Haemonchus contortus L1–L3 larvae; conditions: pure compounds; four days
[2] = test system: Dirofilaria immitis microfilariae; conditions: pure compounds; ~72 h
[3] = test system: human colorectal (SW620) carcinoma cells; conditions: MTT
[4] = test system: Dirofilaria immitis microfilariae; assay: microbe, parasite or virus in culture; conditions: 72 h, read-out: D. immitis mf Motility EC50, ~72 h
[5] = test system: human colorectal (SW620) carcinoma cells; assay: cells; conditions: SW-620, read-out: Human Colorectal Carcinoma Cells (SW620) IC50
[6] = test system: Haemonchus contortus L1–L3 larvae; assay: microbe, parasite or virus in culture; conditions: 96 h, read-out: H. contortus L1–L3 Larvae Development EC50
Erwinia amylovora = test system: Erwinia amylovora; design: method as in PMID 24317473; conditions: at 25 μM; cited from earlier work
Staphylococcus aureus = test system: Staphylococcus aureus; design: method as in PMID 24713874; conditions: cited from earlier work

CC[C@H](C)[C@@H]1NC(=O)[C@H](CCCCNC=O)NC(=O)[C@@H]([C@@H](C)CC)NC(=O)[C@H]([C@@H](C)CC)NC(=O)[C@@H](C)NC(=O)[C@H]([C@@H](C)CC)NC(=O)[C@@H](CC(C)C)NC(=O)[C@@H](Cc2ccccc2)NC1=O [acyl-surugamide A1 (5), acyl-surugamide A1] (cyclo(I[d(aIle)]K(For)I[dF][dL]I[dA]))
H. contortus L1–L3 Larvae Development EC50 [1]: >25 µg/mL | D. immitis mf Motility EC50 [2]: >25 µg/mL | Human Colorectal Carcinoma Cells (SW620) IC50 [3]: >30 µg/mL

CC[C@H](C)[C@@H]1NC(=O)[C@H](CCCCNC(C)=O)NC(=O)[C@@H]([C@@H](C)CC)NC(=O)[C@H]([C@@H](C)CC)NC(=O)[C@@H](C)NC(=O)[C@H]([C@@H](C)CC)NC(=O)[C@@H](CC(C)C)NC(=O)[C@@H](Cc2ccccc2)NC1=O [acyl-surugamide A2 (6), acyl-surugamide A2] (cyclo(I[d(aIle)]K(Ac)I[dF][dL]I[dA]))
H. contortus L1–L3 Larvae Development EC50 [1]: >25 µg/mL | D. immitis mf Motility EC50 [2]: >25 µg/mL | Human Colorectal Carcinoma Cells (SW620) IC50 [3]: >30 µg/mL

CCC(=O)NCCCC[C@@H]1NC(=O)[C@@H]([C@@H](C)CC)NC(=O)[C@H]([C@@H](C)CC)NC(=O)[C@@H](C)NC(=O)[C@H]([C@@H](C)CC)NC(=O)[C@@H](CC(C)C)NC(=O)[C@@H](Cc2ccccc2)NC(=O)[C@H]([C@@H](C)CC)NC1=O [acyl-surugamide A3 (7), acyl-surugamide A3] (cyclo(I[d(aIle)]K(Propionyl)I[dF][dL]I[dA]))
H. contortus L1–L3 Larvae Development EC50 [1]: >25 µg/mL | D. immitis mf Motility EC50 [2]: 3.3 µg/mL | Human Colorectal Carcinoma Cells (SW620) IC50 [3]: > 30 µg/mL

CC[C@H](C)[C@@H]1NC(=O)[C@H](CCCCNC(=O)C(C)=O)NC(=O)[C@@H]([C@@H](C)CC)NC(=O)[C@H]([C@@H](C)CC)NC(=O)[C@@H](C)NC(=O)[C@H]([C@@H](C)CC)NC(=O)[C@@H](CC(C)C)NC(=O)[C@@H](Cc2ccccc2)NC1=O [acyl-surugamide A4 (8), acyl-surugamide A4] (cyclo(I[d(aIle)]K(Pyruvoyl)I[dF][dL]I[dA]))
H. contortus L1–L3 Larvae Development EC50 [1]: >25 µg/mL | D. immitis mf Motility EC50 [2]: 16.0 µg/mL | Human Colorectal Carcinoma Cells (SW620) IC50 [3]: >30 µg/mL

CCCCC(=O)NCCCC[C@@H]1NC(=O)[C@@H]([C@@H](C)CC)NC(=O)[C@H]([C@@H](C)CC)NC(=O)[C@@H](C)NC(=O)[C@H]([C@@H](C)CC)NC(=O)[C@@H](CC(C)C)NC(=O)[C@@H](Cc2ccccc2)NC(=O)[C@H]([C@@H](C)CC)NC1=O [acyl-surugamide AS1 (13), acyl-surugamide AS1] (cyclo(I[d(aIle)]K(Pentanoyl)I[dF][dL]I[dA]))
H. contortus L1–L3 Larvae Development EC50 [1]: >25 µg/mL | D. immitis mf Motility EC50 [2]: 21 µg/mL | Human Colorectal Carcinoma Cells (SW620) IC50 [3]: >30 µg/mL

CCCCCCCCCCCC(=O)NCCCC[C@@H]1NC(=O)[C@@H]([C@@H](C)CC)NC(=O)[C@H]([C@@H](C)CC)NC(=O)[C@@H](C)NC(=O)[C@H]([C@@H](C)CC)NC(=O)[C@@H](CC(C)C)NC(=O)[C@@H](Cc2ccccc2)NC(=O)[C@H]([C@@H](C)CC)NC1=O [acyl-surugamide AS2 (14), acyl-surugamide AS2] (cyclo(I[d(aIle)]K(Lauroyl)I[dF][dL]I[dA]))
H. contortus L1–L3 Larvae Development EC50 [1]: >25 µg/mL | D. immitis mf Motility EC50 [2]: >25 µg/mL | Human Colorectal Carcinoma Cells (SW620) IC50 [3]: >30 µg/mL

CC[C@H](C)[C@@H]1NC(=O)[C@H](CCCCNC(=O)c2ccccc2)NC(=O)[C@@H]([C@@H](C)CC)NC(=O)[C@H]([C@@H](C)CC)NC(=O)[C@@H](C)NC(=O)[C@H]([C@@H](C)CC)NC(=O)[C@@H](CC(C)C)NC(=O)[C@@H](Cc2ccccc2)NC1=O [acyl-surugamide AS3 (15), acyl-surugamide AS3] (cyclo(I[d(aIle)]K(Bz)I[dF][dL]I[dA]))
H. contortus L1–L3 Larvae Development EC50 [1]: >25 µg/mL | D. immitis mf Motility EC50 [2]: 3.4 µg/mL | Human Colorectal Carcinoma Cells (SW620) IC50 [3]: >30 µg/mL

CCCCCC[C@H]1C(=O)O[C@H](C)[C@H](NC(=O)c2cccc(NC=O)c2O)C(=O)O[C@@H](C)[C@@H]1OC(=O)C(C)C [antimycin A2a (2), antimycin A2a]
EC50 [4]: 0.0013 to 0.0021 µg/mL (≈ 0.00243 to 0.00393 µM) | IC50 [5]: 0.08 µg/mL (≈ 0.15 µM) | EC50 [6]: 1.8 µg/mL (≈ 3.37 µM)

CCCC[C@H]1C(=O)O[C@H](C)[C@H](NC(=O)c2cccc(NC=O)c2O)C(=O)O[C@@H](C)[C@@H]1OC(=O)C(C)C [antimycin A4a (1), antimycin A4a]
EC50 [4]: 0.0013 to 0.0021 µg/mL (≈ 0.00257 to 0.00415 µM) | IC50 [5]: 0.061 µg/mL (≈ 0.12 µM) | EC50 [6]: 3.5 µg/mL (≈ 6.91 µM)

CC[C@H](C)[C@@H]1NC(=O)[C@H](CCCCN)NC(=O)[C@@H]([C@@H](C)CC)NC(=O)[C@H]([C@@H](C)CC)NC(=O)[C@@H](C)NC(=O)[C@H]([C@@H](C)CC)NC(=O)[C@@H](CC(C)C)NC(=O)[C@@H](Cc2ccccc2)NC1=O [surugamide A (3), surugamide A] (cyclo(I[d(aIle)]KI[dF][dL]I[dA]))
inhibition of Erwinia amylovora (Erwinia amylovora): 40% | H. contortus L1–L3 Larvae Development EC50 [1]: >25 µg/mL | D. immitis mf Motility EC50 [2]: >25 µg/mL | Human Colorectal Carcinoma Cells (SW620) IC50 [3]: >30 µg/mL | Staphylococcus aureus MIC (Staphylococcus aureus): 10 µM

CC[C@H](C)[C@@H]1NC(=O)[C@H](CCCCNC)NC(=O)[C@@H]([C@@H](C)CC)NC(=O)[C@H]([C@@H](C)CC)NC(=O)[C@@H](C)NC(=O)[C@H]([C@@H](C)CC)NC(=O)[C@@H](CC(C)C)NC(=O)[C@@H](Cc2ccccc2)NC1=O [surugamide K (4), surugamide K] (cyclo(I[d(aIle)][Lys(Me)]I[dF][dL]I[dA]))
H. contortus L1–L3 Larvae Development EC50 [1]: >25 µg/mL | D. immitis mf Motility EC50 [2]: >25 µg/mL | Human Colorectal Carcinoma Cells (SW620) IC50 [3]: >30 µg/mL

CC[C@@H](C)[C@H]1NC(=O)[C@H]([C@@H](C)CC)NC(=O)[C@@H](C)NC(=O)[C@H]([C@@H](C)CC)NC(=O)[C@@H](CC(C)C)NC(=O)[C@@H](Cc2ccccc2)NC(=O)[C@H]([C@@H](C)CC)NC(=O)[C@H](CCCCN)NC1=O [surugamide S1 (9), cyclo[-L-Ile^1-D-Ile^2-L-Lys^3-L-Ile^4-D-Phe^5-D-Leu^6-L-Ile^7-D-Ala^8-]] (cyclo(I[dI]KI[dF][dL]I[dA]))
H. contortus L1–L3 Larvae Development EC50 [1]: >25 µg/mL | D. immitis mf Motility EC50 [2]: >25 µg/mL

CC[C@H](C)[C@@H]1NC(=O)[C@H](CCCNC(=N)N)NC(=O)[C@@H]([C@@H](C)CC)NC(=O)[C@H]([C@@H](C)CC)NC(=O)[C@@H](C)NC(=O)[C@H]([C@@H](C)CC)NC(=O)[C@@H](CC(C)C)NC(=O)[C@@H](Cc2ccccc2)NC1=O [surugamide S2 (10), surugamide S2] (cyclo(I[d(aIle)]RI[dF][dL]I[dA]))
H. contortus L1–L3 Larvae Development EC50 [1]: >25 µg/mL | D. immitis mf Motility EC50 [2]: > 25 µg/mL

CC[C@H](C)[C@@H]1NC(=O)[C@H](C)NC(=O)[C@@H]([C@@H](C)CC)NC(=O)[C@H]([C@@H](C)CC)NC(=O)[C@@H](C)NC(=O)[C@H]([C@@H](C)CC)NC(=O)[C@@H](CC(C)C)NC(=O)[C@@H](Cc2ccccc2)NC1=O [surugamide S3 (11), surugamide S3] (cyclo(I[d(aIle)]AI[dF][dL]I[dA]))
H. contortus L1–L3 Larvae Development EC50 [1]: >25 µg/mL | D. immitis mf Motility EC50 [2]: > 25 µg/mL

CC[C@H](C)[C@@H]1NC(=O)[C@H](CCCCNC(=N)N)NC(=O)[C@@H]([C@@H](C)CC)NC(=O)[C@H]([C@@H](C)CC)NC(=O)[C@@H](C)NC(=O)[C@H]([C@@H](C)CC)NC(=O)[C@@H](CC(C)C)NC(=O)[C@@H](Cc2ccccc2)NC1=O [surugamide S4 (12), surugamide S4] (cyclo(I[d(aIle)][hArg]I[dF][dL]I[dA]))
H. contortus L1–L3 Larvae Development EC50 [1]: >25 µg/mL | D. immitis mf Motility EC50 [2]: >25 µg/mL
